Measurements reported in patent publication US20070249670A1, “Glycogen Phosphorylase Inhibitor Compounds and Pharmaceutical Compositions Thereof” (SMITHKLINE BEECHAM CORPORATION, priority 2004, published 2007).

The molecules below were run against T1, human liver glycogen phosphorylase a (HLGPa) (Homo sapiens, UniProt P06737) (assay: Human liver glycogen phosphorylase a enzymatic activity assay (coupled, fluorescent resorufin readout, with and without 10 mM glucose)). Details: human liver glycogen phosphorylase a enzymatic activity assay.
T1 construct: creating a full-length cDNA fused at the 5′ end to codons for methionine-glycine-alanine-histidine; 6xHis tag (leader Met-Gly-Ala-His6-Gly-Gly) (N); made in house; host or cells: E. coli (bacterial expression plasmid pTXK1007LTev)
T1 sequence (P06737 2-847 limits assumed): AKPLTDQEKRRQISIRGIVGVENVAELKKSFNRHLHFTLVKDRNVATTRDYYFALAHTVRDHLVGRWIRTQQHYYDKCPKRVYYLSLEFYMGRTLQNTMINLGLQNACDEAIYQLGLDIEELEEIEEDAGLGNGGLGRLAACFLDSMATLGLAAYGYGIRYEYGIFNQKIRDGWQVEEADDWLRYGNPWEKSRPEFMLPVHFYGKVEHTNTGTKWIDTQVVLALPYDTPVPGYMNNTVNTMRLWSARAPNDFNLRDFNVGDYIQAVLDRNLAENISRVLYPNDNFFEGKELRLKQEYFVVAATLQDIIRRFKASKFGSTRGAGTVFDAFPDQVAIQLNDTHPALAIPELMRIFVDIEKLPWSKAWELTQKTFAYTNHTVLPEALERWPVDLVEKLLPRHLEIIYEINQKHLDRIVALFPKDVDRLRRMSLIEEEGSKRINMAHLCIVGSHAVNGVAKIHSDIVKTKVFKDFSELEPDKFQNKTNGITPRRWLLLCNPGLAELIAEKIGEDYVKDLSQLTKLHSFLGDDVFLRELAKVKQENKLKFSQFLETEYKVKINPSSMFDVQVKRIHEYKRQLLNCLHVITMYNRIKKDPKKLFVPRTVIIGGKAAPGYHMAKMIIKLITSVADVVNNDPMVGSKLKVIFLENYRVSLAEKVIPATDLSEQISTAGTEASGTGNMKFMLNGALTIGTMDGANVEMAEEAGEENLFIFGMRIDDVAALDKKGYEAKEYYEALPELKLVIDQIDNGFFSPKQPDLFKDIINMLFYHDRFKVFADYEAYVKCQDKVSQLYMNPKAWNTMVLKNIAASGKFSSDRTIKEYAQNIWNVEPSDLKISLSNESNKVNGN
Assay type: biochemical

Compound | IC50
COc1ccc(-c2ccc(C(=O)N[C@H](C(=O)O)C3CCCCC3)c(NC(=O)Nc3c(C)cccc3C)c2)cc1 [Example 191, (2S)-Cyclohexyl({[3-({[(2,6-dimethylphenyl)amino]carbonyl}amino)-4′-(methyloxy)-4-biphenylyl]carbonyl}amino)ethanoic acid] | 32 nM
Cc1cc(C)c(NC(=O)Nc2cc(F)ccc2C(=O)N[C@H](C(=O)O)C2CCCCC2)c(C)c1 [Example 192, (2S)-Cyclohexyl({[4-fluoro-2-({[(2,4,6-trimethylphenyl)amino]carbonyl}amino)phenyl]carbonyl}amino)ethanoic acid] | 120 nM
COc1ccc(-c2ccc(C(=O)N[C@H](C(=O)O)C3CCCCC3)c(NC(=O)Nc3c(C)cc(C)cc3C)c2)cc1 [Example 193, (2S)-Cyclohexyl({[4′-(methyloxy)-3-({[(2,4,6-trimethylphenyl)amino]carbonyl}amino)-4-biphenylyl]carbonyl}amino)ethanoic acid] | 7 nM
Cc1cc(C)c(NC(=O)Nc2cc(-c3ccc(O)cc3)ccc2C(=O)N[C@H](C(=O)O)C2CCCCC2)c(C)c1 [Example 194, (2S)-Cyclohexyl({[4′-hydroxy-3-({[(2,4,6-trimethylphenyl)amino]carbonyl}amino)-4-biphenylyl]carbonyl}amino)ethanoic acid] | 11 nM
Cc1cc(C)c(NC(=O)Nc2cc([N+](=O)[O-])ccc2C(=O)N[C@H](C(=O)O)C2CCCCC2)c(C)c1 [Example 195, (2S)-Cyclohexyl({[4-nitro-2-({[(2,4,6-trimethylphenyl)amino]carbonyl}amino)phenyl]carbonyl}amino)ethanoic acid] | 550 nM
Cc1cc(C)c(NC(=O)Nc2cc(N)ccc2C(=O)N[C@H](C(=O)O)C2CCCCC2)c(C)c1 [Example 196, (2S)-({[4-Amino-2-({[(2,4,6-trimethylphenyl)amino]carbonyl}-amino)phenyl]carbonyl}amino)(cyclohexyl)ethanoic acid] | 110 nM
Cc1cc(C)c(NC(=O)Nc2cc(-c3ccc([N+](=O)[O-])cc3)ccc2C(=O)N[C@H](C(=O)O)C2CCCCC2)c(C)c1 [Example 197, (2S)-Cyclohexyl({[4′-nitro-3-({[(2,4,6-trimethylphenyl)amino]carbonyl}amino)-4-biphenylyl]carbonyl}amino)ethanoic acid] | 14 nM
Cc1cc(C)c(NC(=O)Nc2cc(-c3ccc(CO)cc3)ccc2C(=O)N[C@H](C(=O)O)C2CCCCC2)c(C)c1 [Example 198, (2S)-Cyclohexyl({[4′-(hydroxymethyl)-3-({[(2,4,6-trimethylphenyl)amino]carbonyl}amino)-4-biphenylyl]carbonyl}amino)ethanoic acid] | 27 nM

Same assay, conditions: human liver glycogen phosphorylase a; table does not say whether with or without 10 mM glucose

Compound | IC50
Cc1cc(C)c(NC(=O)Nc2cc(-c3ccc(N)cc3)ccc2C(=O)N[C@H](C(=O)O)C2CCCCC2)c(C)c1 [Example 199, (2S)-({[4′-Amino-3-({[(2,4,6-trimethylphenyl)amino]carbonyl}amino)-4-biphenylyl]carbonyl}amino)(cyclohexyl)ethanoic acid] | 4 nM
O=C(Nc1cc(-c2ccccc2)ccc1C(=O)N[C@H](C(=O)O)C1CCCCC1)Nc1c(Cl)cc(Cl)cc1Cl [Example 200, (2S)-Cyclohexyl({[3-({[(2,4,6-trichlorophenyl)amino]carbonyl}amino)-4-biphenylyl]carbonyl}amino)ethanoic acid] | 130 nM
COc1ccc(-c2ccc(C(=O)N[C@H](C(=O)O)C(C)(C)C)c(NC(=O)Nc3c(Cl)cc(Cl)cc3Cl)c2)cc1 [Example 201, 3-Methyl-N-{[4′-(methyloxy)-3-({[(2,4,6-trichlorophenyl)amino]carbonyl}amino)-4-biphenylyl]carbonyl}-L-valine] | 670 nM
COc1ccc(-c2ccc(C(=O)N[C@H](C(=O)O)C(C)(C)C)c(NC(=O)Nc3c(C)cc(C)cc3C)c2)cc1 [Example 202, 3-Methyl-N-{[4′-(methyloxy)-3-({[(2,4,6-trimethylphenyl)amino]carbonyl}amino)-4-biphenylyl]carbonyl}-L-valine] | 140 nM
O=C(Nc1cc(-c2ccccc2)ccc1C(=O)N[C@H](C(=O)O)C1CCCCC1)Nc1c(Cl)cccc1Cl [Example 203, (2S)-Cyclohexyl({[3-({[(2,6-dichlorophenyl)amino]carbonyl}amino)-4-biphenylyl]carbonyl}amino)ethanoic acid] | 75 nM
Cc1cc(C)c(NC(=O)Nc2cc(-c3ccc(OC(F)(F)F)cc3)ccc2C(=O)N[C@H](C(=O)O)C2CCCCC2)c(C)c1 [Example 204, (2S)-Cyclohexyl({[4′-[(trifluoromethyl)oxy]-3-({[(2,4,6-trimethylphenyl)amino]carbonyl}amino)-4-biphenylyl]carbonyl}amino)ethanoic acid] | 190 nM

The remaining lines, values ahead:

IC50 | Compound
140 nM | COc1ccc(-c2ccc(C(=O)N[C@H](c3nn[nH]n3)C3CCCCC3)c(NC(=O)Nc3c(C)cc(C)cc3C)c2)cc1 [Example 205, N—[(S)-cyclohexyl(1H-tetrazol-5-yl)methyl]-4′-(methyloxy)-3-({[(2,4,6-trimethylphenyl)amino]carbonyl}amino)-4-biphenylcarboxamide]
96 nM | CNC(=O)Nc1ccc(C(=O)N[C@H](C(=O)O)C2CCCCC2)c(NC(=O)Nc2c(C)cc(C)cc2C)c1 [Example 206]
16100 nM | CCCCN(CCCC)c1ccc(C(=O)N[C@H](C(=O)O)C2CCCCC2)c(NC(=O)Nc2c(C)cc(C)cc2C)c1 [Example 207, (2S)-Cyclohexyl({[4-(dibutylamino)-2-({[(2,4,6-trimethylphenyl)amino]carbonyl}amino)phenyl]carbonyl}amino)ethanoic acid]
130 nM | O=C(Nc1cc(F)ccc1C(=O)N[C@H](C(=O)O)C1CCCCC1)Nc1c(Cl)cc(OC(F)(F)F)cc1Cl [Example 208, (2S)-Cyclohexyl{[(2-{[({2,6-dichloro-4-[(trifluoromethyl)oxy]phenyl}amino)carbonyl]amino}-4-fluorophenyl)carbonyl]amino}ethanoic acid]
14 nM | Cc1cc(C)c(NC(=O)Nc2cc(-c3ccc(F)c(F)c3)ccc2C(=O)N[C@H](C(=O)O)C2CCCCC2)c(C)c1 [Example 209, (2S)-Cyclohexyl({[3′,4′-difluoro-3-({[(2,4,6-trimethylphenyl)amino]carbonyl}amino)-4-biphenylyl]carbonyl}amino)ethanoic acid]
14 nM | COc1ccc(-c2ccc(C(=O)N[C@H](C(=O)O)C3CCCC3)c(NC(=O)Nc3c(C)cc(C)cc3C)c2)cc1 [Example 210, (2S)-Cyclopentyl({[4′-(methyloxy)-3-({[(2,4,6-trimethylphenyl)amino]carbonyl}amino)-4-biphenylyl]carbonyl}amino)ethanoic acid]
290 nM | Cc1cc(C)c(NC(=O)Nc2cc(F)ccc2C(=O)N[C@H](C(=O)O)C2CCCC2)c(C)c1 [Example 211, (2S)-Cyclopentyl({[4-fluoro-2-({[(2,4,6-trimethylphenyl)amino]carbonyl}amino)phenyl]carbonyl}amino)ethanoic acid]
17 nM | O=C(Nc1cc(-c2ccc(F)c(F)c2)ccc1C(=O)N[C@H](C(=O)O)C1CCCCC1)Nc1c(Cl)cc(OC(F)(F)F)cc1Cl [Example 212, (2S)-Cyclohexyl{[(3-{[({2,6-dichloro-4-[(trifluoromethyl)oxy]phenyl}amino)carbonyl]amino}-3′,4′-difluoro-4-biphenylyl)carbonyl]amino}ethanoic acid]
24 nM | Cc1cc(C)c(NC(=O)Nc2cc(-c3ccc(CN(C)C)cc3)ccc2C(=O)N[C@H](C(=O)O)C2CCCCC2)c(C)c1 [Example 213, (2S)-Cyclohexyl({[4′-[(dimethylamino)methyl]-3-({[(2,4,6-trimethylphenyl)amino]carbonyl}amino)-4-biphenylyl]carbonyl}amino)ethanoic acid]
23 nM | O=C(Nc1cc(-c2ccccc2)ccc1C(=O)N[C@H](C(=O)O)C1CCCCC1)Nc1c(Cl)cc(OC(F)(F)F)cc1Cl [Example 214, (2S)-Cyclohexyl{[(3-{[({2,6-dichloro-4-[(trifluoromethyl)oxy]phenyl}amino)carbonyl]amino}-4-biphenylyl)carbonyl]amino}ethanoic acid]
9 nM | COc1ccc(-c2ccc(C(=O)N[C@H](C(=O)O)C3CCCCC3)c(NC(=O)Nc3c(Cl)cc(OC(F)(F)F)cc3Cl)c2)cc1 [Example 215, (2S)-Cyclohexyl({[3-{[({2,6-dichloro-4-[(trifluoromethyl)oxy]phenyl}amino)carbonyl]amino}-4′-(methyloxy)-4-biphenylyl]carbonyl}amino)ethanoic acid]
6 nM | Cc1cc(C)c(NC(=O)Nc2cc(-c3ccc(CN4CCCC4)cc3)ccc2C(=O)N[C@H](C(=O)O)C2CCCCC2)c(C)c1 [Example 216, (2S)-Cyclohexyl({[4′-(1-pyrrolidinylmethyl)-3-({[(2,4,6-trimethylphenyl)amino]carbonyl}amino)-4-biphenylyl]carbonyl}amino)ethanoic acid]
